Assay results as given in PMC7613998, “Development of selective inhibitors of phosphatidylinositol 3-kinase C2α” (Nature Chemical Biology, 2022).

Key:
Test in all cases: biochemical
[1] = molecular target: T1, SPHK2 (Homo sapiens, UniProt Q9NRA0); set-up: SelectScreen Adapta purified lipid kinase panel, 1 uM compound, 10 uM ATP, per cent inhibition; conditions: ATP=10; Technology=Adapta; 10 uM ATP
T1 sequence (Q9NRA0 1-654): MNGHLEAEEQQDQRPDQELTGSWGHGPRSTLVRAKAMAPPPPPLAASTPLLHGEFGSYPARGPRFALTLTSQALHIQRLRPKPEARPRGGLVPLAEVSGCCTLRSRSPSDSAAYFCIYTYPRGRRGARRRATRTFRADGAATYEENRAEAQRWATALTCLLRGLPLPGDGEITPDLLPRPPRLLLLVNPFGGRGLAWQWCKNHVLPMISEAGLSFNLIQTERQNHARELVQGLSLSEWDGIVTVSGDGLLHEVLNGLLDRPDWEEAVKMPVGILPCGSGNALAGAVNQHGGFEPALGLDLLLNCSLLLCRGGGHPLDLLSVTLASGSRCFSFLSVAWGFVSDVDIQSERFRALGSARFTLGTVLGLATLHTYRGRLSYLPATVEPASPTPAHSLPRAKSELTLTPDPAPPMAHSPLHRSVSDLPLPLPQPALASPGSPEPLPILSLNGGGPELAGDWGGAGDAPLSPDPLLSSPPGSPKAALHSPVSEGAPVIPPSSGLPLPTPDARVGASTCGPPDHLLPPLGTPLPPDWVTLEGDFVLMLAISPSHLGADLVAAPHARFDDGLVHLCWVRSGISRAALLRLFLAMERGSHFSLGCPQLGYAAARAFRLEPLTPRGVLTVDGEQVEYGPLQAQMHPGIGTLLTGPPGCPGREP
Method: (§1) As PI3KC2α is related to other PI3Ks and to PI3K-like protein kinases such as mTOR, the selectivity of PITCOINs was determined in a panel of biochemical assays. […] Finally, the high specificity of PITCOINs for PI3KC2α was verified by Kinobead profiling experiments. In this approach, the ability of PITCOINs to compete the affinity capture of cellular kinases on immobilized nonselective kinase inhibitors (Kinobeads) is analyzed by mass spectrometry (MS)[31]. […] Four nonkinase weak off-targets were globally found for the three inhibitors with only FECH[32] common to the three PITCOINs (Supplementary Dataset).  Extended Data Fig. 2 Lipid kinase inhibitor profile of PITCOIN1-3. (a–c) Selectivity profiling of PITCOIN1-3 (1 µM) with purified lipid kinases in the presence of 10 µM ATP. […] Data are presented as mean ± SD from two independent experiments. (d, e) IC50 measurements of PITCOIN1-3 against purified recombinant class I PI3K p110α/p85α (d) or purified class III PI3K VPS34 complex II (e). 10 µM ATP and 20 µM PIP3 (for p110α/p85α) or 200 µM PI (for VPS34 complex II) were used as substrates. […] Data are presented as mean ± SD from two independent experiments. Source data

[2] = molecular target: PI4KA (PI4K alpha) (Homo sapiens, UniProt P42356); set-up: SelectScreen Adapta purified lipid kinase panel, 1 uM compound, 10 uM ATP, per cent inhibition; conditions: ATP=10; Technology=Adapta; 10 uM ATP
Method: as §1

[3] = molecular target: PIK3CB/PIK3R1 (p110 beta/p85 alpha) (Homo sapiens, UniProt P42338); set-up: SelectScreen Adapta purified lipid kinase panel, 1 uM compound, 10 uM ATP, per cent inhibition; conditions: ATP=10; Technology=Adapta; 10 uM ATP
Method: as §1

[4] = molecular target: PI4KB (PI4K beta) (Homo sapiens, UniProt Q9UBF8); set-up: SelectScreen Adapta purified lipid kinase panel, 1 uM compound, 10 uM ATP, per cent inhibition; conditions: ATP=10; Technology=Adapta; 10 uM ATP
Method: as §1

[5] = molecular target: PI4K2B (PI4K2 beta) (Homo sapiens, UniProt Q8TCG2); set-up: SelectScreen Adapta purified lipid kinase panel, 1 uM compound, 10 uM ATP, per cent inhibition; conditions: ATP=10; Technology=Adapta; 10 uM ATP
Method: as §1

[6] = molecular target: SPHK1 (Homo sapiens, UniProt Q9NYA1); set-up: SelectScreen Adapta purified lipid kinase panel, 1 uM compound, 10 uM ATP, per cent inhibition; conditions: ATP=10; Technology=Adapta; 10 uM ATP
Method: as §1

[7] = molecular target: PIK3C3 (hVPS34) (Homo sapiens, UniProt Q8NEB9); set-up: SelectScreen Adapta purified lipid kinase panel, 1 uM compound, 10 uM ATP, per cent inhibition; conditions: ATP=10; Technology=Adapta; 10 uM ATP
Method: as §1

[8] = molecular target: FRAP1 (mTOR) (Homo sapiens, UniProt P42345); set-up: SelectScreen Z'-LYTE mTOR kinase assay, 1 uM compound, 10 uM ATP, per cent inhibition; conditions: ATP=10; Technology=ZLYTE; 10 uM ATP
Method: as §1

Chain of PI4KA (PI4K alpha) (P42356 whole entry): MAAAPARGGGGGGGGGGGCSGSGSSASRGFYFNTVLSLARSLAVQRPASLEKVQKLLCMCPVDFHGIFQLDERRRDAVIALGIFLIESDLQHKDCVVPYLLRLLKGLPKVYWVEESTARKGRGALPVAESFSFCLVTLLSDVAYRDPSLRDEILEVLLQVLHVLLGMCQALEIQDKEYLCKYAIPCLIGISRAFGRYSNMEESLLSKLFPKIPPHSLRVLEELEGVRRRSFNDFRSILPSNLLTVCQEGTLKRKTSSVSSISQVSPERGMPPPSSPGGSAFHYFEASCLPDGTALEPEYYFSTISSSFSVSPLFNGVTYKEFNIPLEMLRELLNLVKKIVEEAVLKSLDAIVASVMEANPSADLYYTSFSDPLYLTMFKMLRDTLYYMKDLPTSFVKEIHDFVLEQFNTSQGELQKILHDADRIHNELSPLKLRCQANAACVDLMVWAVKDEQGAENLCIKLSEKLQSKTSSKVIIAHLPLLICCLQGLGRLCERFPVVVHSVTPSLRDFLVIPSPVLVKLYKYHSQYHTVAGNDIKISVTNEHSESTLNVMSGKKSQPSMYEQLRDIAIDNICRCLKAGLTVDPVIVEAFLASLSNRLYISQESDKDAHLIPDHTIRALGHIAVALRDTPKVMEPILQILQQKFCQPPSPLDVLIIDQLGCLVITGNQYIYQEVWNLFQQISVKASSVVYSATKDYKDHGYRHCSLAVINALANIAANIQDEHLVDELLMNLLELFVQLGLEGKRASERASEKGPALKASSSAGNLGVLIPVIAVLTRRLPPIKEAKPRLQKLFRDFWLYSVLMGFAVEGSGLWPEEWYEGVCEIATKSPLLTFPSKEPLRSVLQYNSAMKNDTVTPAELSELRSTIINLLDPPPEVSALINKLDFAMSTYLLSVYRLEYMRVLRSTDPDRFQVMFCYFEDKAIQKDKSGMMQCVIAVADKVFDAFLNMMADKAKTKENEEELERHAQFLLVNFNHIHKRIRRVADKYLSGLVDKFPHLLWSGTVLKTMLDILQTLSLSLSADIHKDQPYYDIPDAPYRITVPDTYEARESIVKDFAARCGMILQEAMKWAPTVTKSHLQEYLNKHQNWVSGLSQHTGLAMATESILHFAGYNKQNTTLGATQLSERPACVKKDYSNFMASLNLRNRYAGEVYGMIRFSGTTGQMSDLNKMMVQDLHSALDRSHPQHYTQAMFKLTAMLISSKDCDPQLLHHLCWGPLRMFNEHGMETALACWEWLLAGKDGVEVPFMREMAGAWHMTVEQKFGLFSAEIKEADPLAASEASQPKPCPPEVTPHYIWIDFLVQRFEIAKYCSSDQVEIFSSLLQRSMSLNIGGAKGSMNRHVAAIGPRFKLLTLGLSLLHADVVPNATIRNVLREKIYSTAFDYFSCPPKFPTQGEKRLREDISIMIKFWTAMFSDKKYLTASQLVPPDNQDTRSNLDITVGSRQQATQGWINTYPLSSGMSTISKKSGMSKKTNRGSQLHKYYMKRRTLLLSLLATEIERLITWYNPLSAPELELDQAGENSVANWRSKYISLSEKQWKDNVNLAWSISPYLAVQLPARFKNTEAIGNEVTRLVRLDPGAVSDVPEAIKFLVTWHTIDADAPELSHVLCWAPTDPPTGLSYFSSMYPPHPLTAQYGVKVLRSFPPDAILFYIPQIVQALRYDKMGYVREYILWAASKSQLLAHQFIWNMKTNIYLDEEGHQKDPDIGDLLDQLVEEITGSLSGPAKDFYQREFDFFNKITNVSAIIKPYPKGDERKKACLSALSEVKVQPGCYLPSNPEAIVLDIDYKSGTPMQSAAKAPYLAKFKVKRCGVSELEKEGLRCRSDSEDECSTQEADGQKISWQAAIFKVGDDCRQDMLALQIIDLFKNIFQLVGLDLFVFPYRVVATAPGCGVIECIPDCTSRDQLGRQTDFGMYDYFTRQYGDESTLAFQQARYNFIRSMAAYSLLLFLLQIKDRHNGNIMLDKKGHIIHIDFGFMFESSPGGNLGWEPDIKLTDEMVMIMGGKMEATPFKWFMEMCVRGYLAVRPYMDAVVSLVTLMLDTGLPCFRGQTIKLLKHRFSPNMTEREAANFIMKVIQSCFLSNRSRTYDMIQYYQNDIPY
Chain of SPHK1 (Q9NYA1 whole entry): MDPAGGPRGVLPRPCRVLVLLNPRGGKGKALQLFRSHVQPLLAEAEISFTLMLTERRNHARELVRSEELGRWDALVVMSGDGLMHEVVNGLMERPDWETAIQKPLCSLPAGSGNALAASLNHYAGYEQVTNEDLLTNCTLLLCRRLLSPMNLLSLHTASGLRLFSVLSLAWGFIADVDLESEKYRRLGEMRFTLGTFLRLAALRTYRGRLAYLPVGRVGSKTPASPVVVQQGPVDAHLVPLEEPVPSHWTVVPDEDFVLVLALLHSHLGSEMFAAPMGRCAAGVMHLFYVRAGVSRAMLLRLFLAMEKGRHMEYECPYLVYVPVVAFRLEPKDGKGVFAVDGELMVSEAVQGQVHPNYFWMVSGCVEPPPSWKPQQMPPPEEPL
Chain of PIK3CB/PIK3R1 (p110 beta/p85 alpha) (P42338 whole entry): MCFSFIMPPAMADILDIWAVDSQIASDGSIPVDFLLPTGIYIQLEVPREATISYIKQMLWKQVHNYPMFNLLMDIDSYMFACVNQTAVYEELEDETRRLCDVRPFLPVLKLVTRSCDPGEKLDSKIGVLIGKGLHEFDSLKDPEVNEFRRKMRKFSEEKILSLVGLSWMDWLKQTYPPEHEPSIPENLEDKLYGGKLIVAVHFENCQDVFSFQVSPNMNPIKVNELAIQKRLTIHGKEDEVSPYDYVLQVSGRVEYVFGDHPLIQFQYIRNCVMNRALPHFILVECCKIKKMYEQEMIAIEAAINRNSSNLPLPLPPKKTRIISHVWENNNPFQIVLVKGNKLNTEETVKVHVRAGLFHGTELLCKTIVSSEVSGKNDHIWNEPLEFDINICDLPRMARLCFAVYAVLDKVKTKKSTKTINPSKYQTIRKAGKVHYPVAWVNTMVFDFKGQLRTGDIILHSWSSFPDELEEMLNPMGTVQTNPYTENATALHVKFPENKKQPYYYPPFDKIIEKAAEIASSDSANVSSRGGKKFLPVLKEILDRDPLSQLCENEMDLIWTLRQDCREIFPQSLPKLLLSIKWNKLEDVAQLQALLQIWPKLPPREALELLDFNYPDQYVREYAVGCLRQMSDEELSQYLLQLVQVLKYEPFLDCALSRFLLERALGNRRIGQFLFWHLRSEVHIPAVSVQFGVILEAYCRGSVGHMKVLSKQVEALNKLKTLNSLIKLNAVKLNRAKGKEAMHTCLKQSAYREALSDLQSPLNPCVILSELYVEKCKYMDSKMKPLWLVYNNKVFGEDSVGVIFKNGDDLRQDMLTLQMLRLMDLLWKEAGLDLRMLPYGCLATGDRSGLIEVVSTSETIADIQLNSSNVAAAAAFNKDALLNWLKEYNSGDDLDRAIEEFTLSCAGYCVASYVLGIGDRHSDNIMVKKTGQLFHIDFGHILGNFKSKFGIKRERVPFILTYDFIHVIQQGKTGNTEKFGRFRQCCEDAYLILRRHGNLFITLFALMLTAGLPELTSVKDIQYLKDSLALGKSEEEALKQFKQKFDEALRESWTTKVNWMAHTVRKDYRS
Chain of PIK3CB/PIK3R1 (p110 beta/p85 alpha) (P27986 whole entry partner): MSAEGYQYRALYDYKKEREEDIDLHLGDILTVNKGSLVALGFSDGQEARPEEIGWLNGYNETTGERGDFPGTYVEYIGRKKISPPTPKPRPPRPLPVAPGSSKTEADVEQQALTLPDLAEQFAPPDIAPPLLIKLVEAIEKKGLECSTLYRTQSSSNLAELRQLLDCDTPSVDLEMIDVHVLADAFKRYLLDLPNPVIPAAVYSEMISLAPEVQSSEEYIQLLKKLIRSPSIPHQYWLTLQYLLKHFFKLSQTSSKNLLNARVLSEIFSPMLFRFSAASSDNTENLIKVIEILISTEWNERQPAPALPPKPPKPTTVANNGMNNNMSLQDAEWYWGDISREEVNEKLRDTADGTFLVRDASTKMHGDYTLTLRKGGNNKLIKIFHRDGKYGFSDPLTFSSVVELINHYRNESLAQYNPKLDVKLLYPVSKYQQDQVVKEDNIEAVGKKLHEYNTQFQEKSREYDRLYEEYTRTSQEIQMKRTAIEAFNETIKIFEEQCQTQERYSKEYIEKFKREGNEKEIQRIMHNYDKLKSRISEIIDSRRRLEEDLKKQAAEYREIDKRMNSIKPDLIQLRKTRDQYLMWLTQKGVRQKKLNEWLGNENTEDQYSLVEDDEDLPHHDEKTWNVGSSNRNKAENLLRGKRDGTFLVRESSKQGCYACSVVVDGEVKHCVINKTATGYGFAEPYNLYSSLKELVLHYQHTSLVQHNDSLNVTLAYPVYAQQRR
Chain of PI4K2B (PI4K2 beta) (Q8TCG2 whole entry): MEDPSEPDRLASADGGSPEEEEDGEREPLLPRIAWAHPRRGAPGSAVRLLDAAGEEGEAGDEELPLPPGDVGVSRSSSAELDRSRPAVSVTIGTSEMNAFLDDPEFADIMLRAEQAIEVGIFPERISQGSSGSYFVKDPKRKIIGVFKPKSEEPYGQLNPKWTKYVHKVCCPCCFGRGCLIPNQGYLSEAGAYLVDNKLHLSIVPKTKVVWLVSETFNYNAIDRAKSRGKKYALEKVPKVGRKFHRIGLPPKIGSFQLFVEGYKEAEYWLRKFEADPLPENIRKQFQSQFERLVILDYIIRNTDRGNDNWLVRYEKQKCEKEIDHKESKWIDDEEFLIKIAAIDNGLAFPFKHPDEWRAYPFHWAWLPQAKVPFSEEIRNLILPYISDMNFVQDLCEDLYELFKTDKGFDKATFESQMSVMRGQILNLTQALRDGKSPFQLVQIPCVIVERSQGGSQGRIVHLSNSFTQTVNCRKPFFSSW

inhibition at 1 µM [1] [%]	inhibition at 1 µM [2] [%]	inhibition at 1 µM [3] [%]	inhibition at 1 µM [4] [%]	inhibition at 1 µM [5] [%]	inhibition at 1 µM [6] [%]	inhibition at 1 µM [7] [%]	inhibition at 1 µM [8] [%]	SMILES
9	1	10	4	4	-1	-14	8	O=C(CSc1nc2nccnc2c(=O)n1CCc1ccccc1)Nc1nccs1 [compound 1, PITCOIN1]
-1	-9	13	3	-5	-6	7	5	O=C(CSc1nc2nccnc2c(=O)n1CCc1ccccc1)Nc1nc(-c2cccc(O)c2)cs1 [compound 2, PITCOIN2]
-5	5	12	13	8	-1	2	4	CS(=O)(=O)Nc1cccc(-c2csc(NC(=O)CSc3nc4nccnc4c(=O)n3CCc3ccccc3)n2)c1 [compound 3, PITCOIN3]
